# Data as given in PMC10763615, “Identification and engineering of potent cyclic peptides with selective or promiscuous binding through biochemical profiling and bioinformatic data analysis” (RSC Chemical Biology, 2023).
# Positions of bridges follow the written chain, without caps; N, C: chain ends. Residues, ends and D or L forms follow the SMILES beside them.
# Assays:
# Assay type in all cases: binding
# FGF-R4 ECD = molecular target: T1, FGF-R4 ECD (Homo sapiens, UniProt P22455); test: single concentration BLI of crude peptides; details: crude T18 selection 1 (1:1:1) peptides, single concentration BLI (Table S4); read-out: KD (4)
# T1 construct: DNA constructs for the extracellular domain (ECD) of human FGF-; HPC4 (C); made in house; host or cells: HEK 293-6E
# T1 sequence (P22455 22-369 limits assumed): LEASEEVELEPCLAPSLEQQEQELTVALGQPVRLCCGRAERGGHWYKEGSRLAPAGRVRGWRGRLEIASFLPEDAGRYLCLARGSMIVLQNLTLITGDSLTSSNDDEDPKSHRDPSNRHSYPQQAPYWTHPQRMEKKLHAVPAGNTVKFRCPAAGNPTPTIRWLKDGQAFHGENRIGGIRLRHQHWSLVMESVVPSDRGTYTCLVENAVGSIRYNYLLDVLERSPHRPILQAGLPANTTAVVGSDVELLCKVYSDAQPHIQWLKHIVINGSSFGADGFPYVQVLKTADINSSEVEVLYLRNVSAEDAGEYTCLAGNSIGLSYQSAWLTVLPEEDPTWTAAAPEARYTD
# Protocol: (§1) KD affinity binding measurements were obtained by biolayer interferometry (BLI) instruments (Fortebio Octet HTX, or Sartorius Octet RH16 using either 8 or 16 channel mode.
# For single concentration binding experiments, 50 μM peptide stocks in folding buffer were diluted 1:50 in mRNA display selection buffer (PBS pH7.4 supplemented with 0.05% Tween-20 and 0.01% BSA) in either a 96 well black plate, or a 384 well tilted bottom microplate (ForteBio). Biotinylated FGF-R protein was loaded onto Streptavidin-functionalised biosensors (ForteBio) and immersed into ~1 μM peptide to obtain association kinetics curves. Dissociation kinetics curves were obtained by subsequent immersion of ligand-associated loaded sensors into a 1:50 dilution of folding buffer in mRNA display selection buffer. Fitted KD data was adjusted for concentration as determined by UPLC-CAD. […]
# FGF-R1C ECD = molecular target: T2, FGF-R1C ECD (Homo sapiens, UniProt P11362); test: biochemical; set-up: DNA constructs for the extracellular domain (ECD) of human FGF-; HPC4 (C); made in house; host or cells: HEK 293-6E
# T2 sequence (P11362 22-376 limits assumed): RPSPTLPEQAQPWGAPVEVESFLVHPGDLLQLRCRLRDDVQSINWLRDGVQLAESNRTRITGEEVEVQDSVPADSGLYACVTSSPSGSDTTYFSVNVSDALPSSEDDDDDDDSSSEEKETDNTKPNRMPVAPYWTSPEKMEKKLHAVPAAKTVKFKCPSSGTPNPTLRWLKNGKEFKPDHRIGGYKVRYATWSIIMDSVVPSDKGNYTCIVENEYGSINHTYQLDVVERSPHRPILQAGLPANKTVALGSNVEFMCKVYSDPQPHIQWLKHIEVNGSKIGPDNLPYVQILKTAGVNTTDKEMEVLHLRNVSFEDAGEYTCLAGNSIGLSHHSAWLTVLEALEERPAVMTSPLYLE
# Protocol: as §1
# (§2) For single concentration binding experiments, 50 μM peptide stocks in folding buffer were diluted 1:50 in mRNA display selection buffer (PBS pH7.4 supplemented with 0.05% Tween-20 and 0.01% BSA) in either a 96 well black plate, or a 384 well tilted bottom microplate (ForteBio). Biotinylated FGF-R protein was loaded onto Streptavidin-functionalised biosensors (ForteBio) and immersed into ~1 μM peptide to obtain association kinetics curves. Dissociation kinetics curves were obtained by subsequent immersion of ligand-associated loaded sensors into a 1:50 dilution of folding buffer in mRNA display selection buffer. Fitted KD data was adjusted for concentration as determined by UPLC-CAD.
# (§3) For accurate multi-concentration KD determination, dilution series of each peptide were made, and association and dissociation kinetics curves were obtained as above for each concentration to fit a multi-point KD binding model. Data collection and analysis was performed using the Octet Instrument Control […]
# (§4) concentration assay kinetics curves shown in supplementary Figure S 19-24.
# FGF-R3C ECD = molecular target: T3, FGF-R3C ECD (Homo sapiens, UniProt P22607); test: biochemical; set-up: DNA constructs for the extracellular domain (ECD) of human FGF-; HPC4 (C); made in house; host or cells: HEK 293-6E
# T3 sequence (P22607 23-375 limits assumed): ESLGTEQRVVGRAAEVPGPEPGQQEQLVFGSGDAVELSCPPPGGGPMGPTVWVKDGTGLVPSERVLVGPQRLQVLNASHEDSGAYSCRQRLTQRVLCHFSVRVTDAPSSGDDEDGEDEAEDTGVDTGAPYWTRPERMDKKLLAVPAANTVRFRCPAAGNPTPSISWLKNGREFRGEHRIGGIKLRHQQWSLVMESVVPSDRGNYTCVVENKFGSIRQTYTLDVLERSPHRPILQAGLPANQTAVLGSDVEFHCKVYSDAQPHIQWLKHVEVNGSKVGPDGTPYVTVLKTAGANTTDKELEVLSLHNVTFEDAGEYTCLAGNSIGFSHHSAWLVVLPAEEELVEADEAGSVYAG
# Protocol: as §1, §2, §3, §4
smiles,measurement,setting,value
CC[C@H](C)[C@@H]1NC(=O)[C@H](Cc2ccc(O)cc2)NC(=O)[C@H](Cc2ccc(O)cc2)NC(=O)[C@H](Cc2ccccc2)NC(=O)[C@H](CC(C)C)NC(=O)[C@H](CC(=O)O)NC(=O)[C@H](CCC(=O)O)NC(=O)[C@@H](NC(=O)[C@H](CCSC)NC(C)=O)CSSC[C@@H](C(=O)NCC(=O)N[C@@H](CO)C(=O)NCC(=O)N[C@@H](CO)C(=O)N[C@@H](CC(=O)O)C(=O)N[C@@H](Cc2ccc(O)cc2)C(=O)N[C@@H](CCCCN)C(=O)N[C@@H](CC(=O)O)C(=O)N[C@@H](CC(=O)O)C(=O)N[C@@H](CC(=O)O)C(=O)N[C@@H](CC(=O)O)C(=O)N[C@@H](CCCCN)C(N)=O)NC(=O)CNC(=O)[C@H](Cc2ccc(O)cc2)NC(=O)[C@H](CCCNC(=N)N)NC(=O)[C@H](CC(N)=O)NC(=O)[C@H]([C@@H](C)CC)NC1=O (Ac-MCEDLFYYIINRYGCGSGSDYKDDDDK-NH2; disulfide 2-15),Kd,FGF-R4 ECD,0.018 µM
same,Kd,FGF-R1C ECD,> 10 µM
same,Kd,FGF-R3C ECD,> 10 µM
CSCC[C@H](NC(C)=O)C(=O)N[C@H]1CSSC[C@@H](C(=O)NCC(=O)N[C@@H](CO)C(=O)NCC(=O)N[C@@H](CO)C(=O)N[C@@H](CC(=O)O)C(=O)N[C@@H](Cc2ccc(O)cc2)C(=O)N[C@@H](CCCCN)C(=O)N[C@@H](CC(=O)O)C(=O)N[C@@H](CC(=O)O)C(=O)N[C@@H](CC(=O)O)C(=O)N[C@@H](CC(=O)O)C(=O)N[C@@H](CCCCN)C(N)=O)NC(=O)[C@H](Cc2c[nH]cn2)NC(=O)[C@H](Cc2c[nH]cn2)NC(=O)[C@H](Cc2ccccc2)NC(=O)[C@H](CC(C)C)NC(=O)[C@H](CC(C)C)NC(=O)[C@H](Cc2ccc(O)cc2)NC(=O)[C@H](Cc2ccc(O)cc2)NC(=O)[C@H](Cc2ccccc2)NC(=O)[C@H](CC(C)C)NC(=O)[C@H](CC(=O)O)NC(=O)[C@H](CCC(=O)O)NC1=O (Ac-MCEDLFYYLLFHHCGSGSDYKDDDDK-NH2; disulfide 2-14),Kd,FGF-R4 ECD,0.081 µM
same,Kd,FGF-R1C ECD,4.54 µM
same,Kd,FGF-R3C ECD,> 10 µM
CSCC[C@H](NC(C)=O)C(=O)N[C@H]1CSSC[C@@H](C(=O)NCC(=O)N[C@@H](CO)C(=O)NCC(=O)N[C@@H](CO)C(=O)N[C@@H](CC(=O)O)C(=O)N[C@@H](Cc2ccc(O)cc2)C(=O)N[C@@H](CCCCN)C(=O)N[C@@H](CC(=O)O)C(=O)N[C@@H](CC(=O)O)C(=O)N[C@@H](CC(=O)O)C(=O)N[C@@H](CC(=O)O)C(=O)N[C@@H](CCCCN)C(N)=O)NC(=O)[C@H](CCC(N)=O)NC(=O)[C@H](CCCNC(=N)N)NC(=O)[C@H](CCCCN)NC(=O)[C@H](C(C)C)NC(=O)[C@H](CC(C)C)NC(=O)[C@H](CC(C)C)NC(=O)[C@H](Cc2ccc(O)cc2)NC(=O)[C@H](Cc2ccc(O)cc2)NC(=O)[C@H](Cc2ccccc2)NC(=O)[C@H](CC(C)C)NC(=O)[C@H](Cc2c[nH]cn2)NC(=O)[C@H](CCC(=O)O)NC1=O (Ac-MCEHLFYYLLVKRQCGSGSDYKDDDDK-NH2; disulfide 2-15),Kd,FGF-R4 ECD,0.001 µM
same,Kd,FGF-R1C ECD,> 10 µM
same,Kd,FGF-R3C ECD,> 10 µM
CSCC[C@H](NC(C)=O)C(=O)N[C@H]1CSSC[C@@H](C(=O)NCC(=O)N[C@@H](CO)C(=O)NCC(=O)N[C@@H](CO)C(=O)N[C@@H](CC(=O)O)C(=O)N[C@@H](Cc2ccc(O)cc2)C(=O)N[C@@H](CCCCN)C(=O)N[C@@H](CC(=O)O)C(=O)N[C@@H](CC(=O)O)C(=O)N[C@@H](CC(=O)O)C(=O)N[C@@H](CC(=O)O)C(=O)N[C@@H](CCCCN)C(N)=O)NC(=O)[C@H](CCC(N)=O)NC(=O)[C@H](CCC(=O)O)NC(=O)[C@H](Cc2c[nH]c3ccccc23)NC(=O)[C@H](Cc2c[nH]cn2)NC(=O)CNC(=O)[C@H](Cc2ccc(O)cc2)NC(=O)[C@@H]2CCCN2C(=O)[C@H](Cc2c[nH]cn2)NC(=O)[C@H](CCCNC(=N)N)NC(=O)[C@H](Cc2c[nH]cn2)NC(=O)[C@H](CCC(=O)O)NC1=O (Ac-MCEHRHPYGHWEQCGSGSDYKDDDDK-NH2; disulfide 2-14),Kd,FGF-R4 ECD,> 10 µM
same,Kd,FGF-R1C ECD,> 10 µM
same,Kd,FGF-R3C ECD,> 10 µM
CSCC[C@H](NC(C)=O)C(=O)N[C@H]1CSSC[C@@H](C(=O)NCC(=O)N[C@@H](CO)C(=O)NCC(=O)N[C@@H](CO)C(=O)N[C@@H](CC(=O)O)C(=O)N[C@@H](Cc2ccc(O)cc2)C(=O)N[C@@H](CCCCN)C(=O)N[C@@H](CC(=O)O)C(=O)N[C@@H](CC(=O)O)C(=O)N[C@@H](CC(=O)O)C(=O)N[C@@H](CC(=O)O)C(=O)N[C@@H](CCCCN)C(N)=O)NC(=O)[C@@H]2CCCN2C(=O)[C@H](Cc2ccc(O)cc2)NC(=O)[C@H](Cc2c[nH]c3ccccc23)NC(=O)[C@H](Cc2ccc(O)cc2)NC(=O)[C@H](CC(N)=O)NC(=O)[C@H](CO)NC(=O)[C@H](Cc2c[nH]c3ccccc23)NC(=O)[C@H](CCCNC(=N)N)NC(=O)[C@H](CO)NC(=O)[C@H](CCCNC(=N)N)NC(=O)[C@H](CCC(N)=O)NC(=O)[C@H](CCC(=O)O)NC1=O (Ac-MCEQRSRWSNYWYPCGSGSDYKDDDDK-NH2; disulfide 2-15),Kd,FGF-R4 ECD,> 10 µM
same,Kd,FGF-R1C ECD,> 10 µM
same,Kd,FGF-R3C ECD,> 10 µM
CC[C@H](C)[C@@H]1NC(=O)[C@H](CCCCN)NC(=O)[C@H](Cc2ccc(O)cc2)NC(=O)[C@H](Cc2c[nH]c3ccccc23)NC(=O)[C@H]([C@@H](C)CC)NC(=O)[C@H](C(C)C)NC(=O)[C@H](CCC(=O)O)NC(=O)[C@@H](NC(=O)[C@H](CCSC)NC(C)=O)CSSC[C@@H](C(=O)NCC(=O)N[C@@H](CO)C(=O)NCC(=O)N[C@@H](CO)C(=O)N[C@@H](CC(=O)O)C(=O)N[C@@H](Cc2ccc(O)cc2)C(=O)N[C@@H](CCCCN)C(=O)N[C@@H](CC(=O)O)C(=O)N[C@@H](CC(=O)O)C(=O)N[C@@H](CC(=O)O)C(=O)N[C@@H](CC(=O)O)C(=O)N[C@@H](CCCCN)C(N)=O)NC(=O)[C@H](CCCCN)NC(=O)[C@H](CCCNC(=N)N)NC(=O)[C@H](Cc2c[nH]c3ccccc23)NC(=O)[C@H](CCC(N)=O)NC1=O (Ac-MCEVIWYKIQWRKCGSGSDYKDDDDK-NH2; disulfide 2-14),Kd,FGF-R4 ECD,0.012 µM
same,Kd,FGF-R1C ECD,> 10 µM
same,Kd,FGF-R3C ECD,> 10 µM
CC[C@H](C)[C@@H]1NC(=O)[C@H](CC(C)C)NC(=O)[C@H](Cc2ccccc2)NC(=O)[C@H](Cc2ccc(O)cc2)NC(=O)[C@H](CCCCN)NC(=O)[C@H](C(C)C)NC(=O)[C@H](CCC(=O)O)NC(=O)[C@@H](NC(=O)[C@H](CCSC)NC(C)=O)CSSC[C@@H](C(=O)NCC(=O)N[C@@H](CO)C(=O)NCC(=O)N[C@@H](CO)C(=O)N[C@@H](CC(=O)O)C(=O)N[C@@H](Cc2ccc(O)cc2)C(=O)N[C@@H](CCCCN)C(=O)N[C@@H](CC(=O)O)C(=O)N[C@@H](CC(=O)O)C(=O)N[C@@H](CC(=O)O)C(=O)N[C@@H](CC(=O)O)C(=O)N[C@@H](CCCCN)C(N)=O)NC(=O)[C@H](Cc2c[nH]c3ccccc23)NC(=O)[C@H](CCCNC(=N)N)NC(=O)[C@H](CCCCN)NC(=O)[C@H](Cc2c[nH]c3ccccc23)NC1=O (Ac-MCEVKYFLIWKRWCGSGSDYKDDDDK-NH2; disulfide 2-14),Kd,FGF-R4 ECD,0.015 µM
same,Kd,FGF-R1C ECD,0.65 µM
same,Kd,FGF-R3C ECD,> 10 µM
